Like-named read-outs stand apart in the source and are kept apart here.
How the values were obtained:
[1] = system: immobilization induced osteoporosis (femur bone area); test: Effect on immobilization induced osteoporosis (sciatic nerve section) in rats; format: in vivo, Sprague-Dawley rat; conditions: for Immobilized leg, femur total bone area: mean (SE), control 5.3 (0.6); for Femoral bone area in the immobilized leg / bone loss prevention (in words): sciatic nerve section
Experimental: Male Sprague-Dawley rats weighing 200±25 g were randomized by weight into groups and anesthetized with Hypnorm/Mebunat and Temgesic. A dorsolateral incision was made on the right or left hip through which the sciatic nerve was exposed, and a 0.5 cm section excised. The muscle and skin were sutured and the animal returned to its cage. The contralateral leg was left intact. The compound I dissolved in physiological saline was administered by subcutaneous injection daily at different dose levels from two days before the surgery until the day of 20 postneurectomy. Control animals received physiological saline. Animals double-labeled with fluorochrome at standardized time points were sacrificed at 21 days postneurectomy and their femora were removed. Femora were embedded in methylmetacrylate, sectioned, and stained. The metphyseal secondary spongiosa and the diaphyseal cortical bone of the femora were subjected to histomorphometric analysis. In control rats, femural total bone area decreased in the immobilized leg.

[2] = Pharmacokinetics: urinary excretion of parent compound and bioavailability from urine; format: in vivo, rat; conditions: for Urinary excretion 0-24 h as parent compound / dose excreted at 24 h: single dose 114 mg/kg; for Urinary excretion 0-24 h as parent compound: 1440 min; for dose excreted at 24 h: urine, read-out: Urinary excretion 0-24 h as parent compound
Experimental: (§1) Pharmacokinetics of the compound [(2-pyridinylamino)methylidene]bisphosphonic acid tetraethylester was studied in rats. Minor amounts of an intravenous dose was excreted as a parent compound during 24 hours into urine supporting extensive metabolism as well. About half of the oral dose of the said compound was absorbed in rats.
(§2) Bioavailability was determined from the total amount of compound excreted into urine during 24 hours or from the serum concentration data at different time points after oral administration and intravenous administration. The urine and serum samples were analyzed for the test compound I with high pressure liquid chromatographic methods. […] Bioavailability of compound I assessed by serum concentration data was 44%.

[3] = system: spontaneous bone resorption; test: Effect on spontaneous bone resorption assessed by urinary tetracycline excretion from prelabeled rats; format: in vivo, Sprague-Dawley rat; conditions: for Inhibition of tetracycline excretion: n=5, mean (SE); for Inhibition of excretion of radiolabeled tetracycline / spontaneous bone resorption (in words): rats, s.c.
Experimental: Male Sprague-Dawley rats were used. From the first week of life, the rats were injected subcutaneously with a solution containing 10 μCi/ml of (7-^3 H(N))tetracycline dissolved in physiological saline. The injections were performed twice weekly for 6 weeks. Every animal received a total amount of 20 μCi radiolabeled tetracycline. All animals were given normal diet for growing animals and water ad libitum. One week after the last injection of radiolabeled tetracycline, the rats were weighed and feeding with diet for adult animals was started. At fifth day the rats were randomized into groups and housed in individual metabolic cages. 24-h urine collections were performed for ten days. From the second day [(2-pyridinylamino)methylidene]bisphosphonic acid tetraethylester, compound I, dissolved in physiological saline was injected subcutaneously at different dose levels daily for six days. Control animals received physiological saline. Urine volume was measured and the radioactivity in urine samples was determined by liquid scintillation counting. The data was calculated as the ratio of treated/control at each day for the determination of maximal inhibition of tetracycline excretion.
Excretion of unmetabolized tetracycline into urine reflects its removal from bone during resorptive processes and thus enables the continual monitoring of bone resorption.

[4] = system: PTH-stimulated bone resorption, mice calvaria; test: Inhibition of PTH-stimulated resorption of calvarial bone in vitro; format: cell-based, mouse; conditions: for Inhibition of bone resorption in vitro, mice calvaria (in words): except at very high, unphysiological concentrations, calcium release
Experimental: (§3) Newborn mice were labeled by a subcutaneous injection of ^45 Ca four days prior to sacrifice. Calvarial bone fragments were microdissected from the parietal bones, preincubated in culture medium with indomethacin, washed and then cultured for three days with and without the compound I. Bone resorption was stimulated by parathyroid hormone (PTH, 10 nM) and an inhibitory effect on this stimulated resorption was measured. […] For the determination of the binding of compound I to bone mineral, ^14 C-disodium clodronte tetrahydrate and hydroxyapatite crystals were incubated at room temperature in barbituric acid buffer at physiological pH in the absence and presence of the compound I in various concentrations. After two hours incubation, the mixture was centrifuged, and the percent of the total specifically bound radioactivity was measured from the supernatant. No binding of the compound I to hydroxyapatite was found at up to 500 μM concentration (Table 3).

[5] = Pharmacokinetics: serum AUC and bioavailability from serum concentration data; format: in vivo; conditions: rat; for AUC(0-inf): single dose 114 mg/kg, read-out: AUC0->.infin.
Experimental: as §1, §2

[6] = Binding to bone mineral (hydroxyapatite crystals, 14C-clodronate); conditions: for Binding to bone mineral: two hours; for Binding to hydroxyapatite (in words): up to 500 μM, physiological pH, in vitro
Experimental: as §3

[7] = listed as [(2-pyridinylamino)methylidene]bisphosphonic acid tetraethylester

CCOP(=O)(OCC)C(Nc1ccccn1)P(=O)(OCC)OCC [I, [(2-pyridinylamino)methylidene]bisphosphonic acid tetraethylester]
Immobilized leg, femur total bone area ([1]; 1 mg/kg s.c. daily, n=4): 6.0 (1.3) % | Immobilized leg, femur total bone area ([1]; 75 mg/kg s.c. daily, n=5): 24.5 (2.5) % | Immobilized leg, femur total bone area ([1]; 200 mg/kg s.c. daily, n=7): 35.5 (1.7) % | Immobilized leg, femur total bone area ([1]; 37,5 mg/kg s.c. daily, n=5): 17.3 (2.0) % | Mineral apposition rate of cortical bone ([1]; rats, s.c., data not presented): No deleterious effects | Femoral bone area in the immobilized leg / bone loss prevention (in words) ([1]; rats, s.c., listed as [(2-pyridinylamino)methylidene]bisphosphonic acid tetraethylester): effective in preventing bone loss | Femoral bone area in the immobilized leg / bone loss prevention (in words) ([1]; rats, s.c., listed as compound I): increased dose-dependently femoral bone area in the immobilized leg | Urinary excretion 0-24 h as parent compound ([2]; i.v., 114 mg/kg): 13.6 % of dose | Urinary excretion as a parent compound during 24 hours (in words) ([2]; intravenous dose, rats): Minor amounts | Absorption of the oral dose (in words) ([2]; oral, rats): About half | Urinary excretion 0-24 h as parent compound ([2]; p.o., 114 mg/kg): 7.8 % of dose | bioavailability at 24 h ([2]; rat, po, p.o. vs i.v., 114 mg/kg, urine 0-24 h, read-out: Bioavailability F from urinary excretion): 58% | dose excreted at 24 h ([2]; rat, iv, 114 mg/kg, i.v.): 14% | dose excreted at 24 h ([2]; rat, po, 114 mg/kg, p.o.): < 10% | Inhibition of tetracycline excretion ([3]; 1 mg/kg s.c. daily for six days): 12.2 (6.4) % | Inhibition of tetracycline excretion ([3]; 10 mg/kg s.c. daily for six days): 19.8 (5.9) % | Inhibition of tetracycline excretion ([3]; 100 mg/kg s.c. daily for six days): 50.0 (6.1) % | Inhibition of tetracycline excretion ([3]; 200 mg/kg s.c. daily for six days): 72.9 (2.6) % | Inhibition of excretion of radiolabeled tetracycline / spontaneous bone resorption (in words) [3, 7]: decreased spontaneous bone resorption | Inhibition of excretion of radiolabeled tetracycline / spontaneous bone resorption (in words) ([3]; listed as compound I): dose-dependently inhibited | Inhibition of PTH-stimulated resorption, 100 (PTH - x)/PTH ([4]; 1 μmol/l, PTH 10 nM, three days culture): No inhibiton | Inhibition of PTH-stimulated resorption, 100 (PTH - x)/PTH ([4]; 10 μmol/l, PTH 10 nM, three days culture): No inhibition | Inhibition of PTH-stimulated resorption, 100 (PTH - x)/PTH ([4]; 100 μmol/l, PTH 10 nM, three days culture): No inhibition | inhibition at 1000 µM ([4]; Mus musculus, 72 h, 1000 μmol/l, PTH 10 nM, three days culture, (SE), read-out: Inhibition of PTH-stimulated resorption, 100 (PTH - x)/PTH): 12.9% | Inhibition of bone resorption in vitro, mice calvaria (in words) [4]: no inhibition of resorption in vitro was shown except at very high, unphysiological concentrations | Inhibition of bone resorption in vitro, mice calvaria (in words) [4, 7]: No effect | AUC(0-inf) ([5]; iv): 139000 ng·h/mL | bioavailability ([5]; po, p.o. vs i.v., 114 mg/kg, read-out: Bioavailability F from serum concentration data (AUC)): 44% | AUC(0-inf) ([5]; po): 60700 ng·h/mL | Binding to bone mineral ([6]; 5 μmol/l): No binding | Binding to bone mineral ([6]; 100 μmol/l): No binding | Binding to bone mineral ([6]; 200 μmol/l): No binding | Binding to bone mineral ([6]; 500 μmol/l): No binding | Binding to hydroxyapatite (in words) [6, 7]: did not show either any binding on hydroxyapatite crystals in vitro | Binding to hydroxyapatite (in words) ([6]; listed as compound I): No binding
